Data from patent US8119624B2, “Fused phenyl amido heterocyclic compounds” (Pfizer Inc., priority 2006, dated 2012).

Molecular target: T1, Full-length glucokinase (beta cell isoform) (Homo sapiens, UniProt P35557)
T1 construct: Full-length glucokinase (beta cell isoform) was His-tagged at N-terminus; His tag (N); made in house
T1 sequence (P35557 1-465): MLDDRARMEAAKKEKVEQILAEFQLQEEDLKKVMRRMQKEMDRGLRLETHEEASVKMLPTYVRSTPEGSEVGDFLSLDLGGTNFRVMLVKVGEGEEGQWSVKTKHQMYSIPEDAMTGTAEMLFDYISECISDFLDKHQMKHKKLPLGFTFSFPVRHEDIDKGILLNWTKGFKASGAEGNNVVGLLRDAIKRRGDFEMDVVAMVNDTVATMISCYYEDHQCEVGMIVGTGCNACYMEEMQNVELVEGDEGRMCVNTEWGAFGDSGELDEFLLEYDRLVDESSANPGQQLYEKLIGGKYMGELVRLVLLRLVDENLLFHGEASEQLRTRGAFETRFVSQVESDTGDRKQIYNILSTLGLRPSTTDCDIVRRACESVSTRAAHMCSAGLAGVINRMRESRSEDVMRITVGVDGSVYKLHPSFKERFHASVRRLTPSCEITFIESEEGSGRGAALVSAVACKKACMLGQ
Test: Glucokinase biochemical assay (PK/LDH-coupled, NADH depletion at 340 nm): % activation, EC50, % max activation
Settings: 5 mM glucose; for activation at 10 µM: 10 uM compound, % Activation=(Va/Vo−1)×100, read-out: % Activation at 10 uM; for EC50: GK activation, read-out: EC50; for Emax: fitted maximum activation, read-out: % Max Activation
Procedure, shortened: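 Activation expressed as (Va/Vo−1)×100, where initial rates with and without compound come from NADH depletion at 340 nm over 200–900 s. Enzyme is His-tagged human beta-cell GK, full length, run at room temperature in HEPES buffer with 1 mM ATP and 5 mM glucose. DMSO 1%.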

SMILES: COCC1(C)Cc2c(Oc3ccc(C(=O)N4CCC4)c(F)c3)cc(C(=O)Nc3ccn(C)n3)cc2O1 (stereo not shown) [Example 242, 4-[4-(Azetidine-1-carbonyl)-3-fluoro-phenoxy]-2-methoxymethyl-2-methyl-2,3-dihydro-benzofuran-6-carboxylic acid (1-methyl-1H-pyrazol-3-yl)-amide]
- activation at 10 µM: 140%
- EC50: 63 nM
- Emax: 144%

SMILES: Cn1ccc(NC(=O)c2cc(Oc3ccc(S(C)(=O)=O)cc3)c3sccc3c2)n1 [Example 364, 7-(4-(Methylsulfonyl)phenoxy)-N-(1-methyl-1H-pyrazol-3-yl)benzo-[b]-thiophene-5-carboxamide]
- activation at 10 µM: 45.8%
- EC50: > 10000 nM

SMILES: Cn1ccc(NC(=O)c2cc(Oc3ccc(C(=O)N4CC[C@H](O)C4)c(F)c3)c3c(c2)OC(C)(C)C3)n1 [Example 62, 4-[3-Fluoro-4-((S)-3-hydroxy-pyrrolidine-1-carbonyl)-phenoxy]-2,2-dimethyl-2,3-dihydro-benzofuran-6-carboxylic acid(1-methyl-1H-pyrazol-3-yl)-amide]
- activation at 10 µM: 153%
- EC50: 700 nM
- Emax: 165%

SMILES: Cn1ccc(NC(=O)c2cc(Oc3cccc(S(C)(=O)=O)c3)c3c(c2)OC(C)(C)C3)n1 [Example 36, 4-(3-Methanesulfonyl-phenoxy)-2,2-dimethyl-2,3-dihydro-benzofuran-6-carboxylic acid(1-methyl-1H-pyrazol-3-yl)-amide]
- activation at 10 µM: 130%
- EC50: 1100 nM
- Emax: 149%

SMILES: Cn1ccc(NC(=O)c2cc(Oc3ccc(C(=O)N4CCC4)c(F)c3)c3c(c2)OC(CO)C3)n1 (stereo not shown) [Example 202, 4-[4-(Azetidine-1-carbonyl)-3-fluoro-phenoxy]-2-hydroxymethyl-2,3-dihydro-benzofuran-6-carboxylic acid (1-methyl-1H-pyrazol-3-yl)-amide]
- activation at 10 µM: 121%
- EC50: 360 nM
- Emax: 108%

SMILES: Cc1cc2c(Oc3ccc(S(C)(=O)=O)cc3)cc(C(=O)Nc3cccc(CO)n3)cc2o1 [Example 268, N-(6-(Hydroxymethyl)pyridin-2-yl)-2-methyl-4-(4-(methylsulfonyl)phenoxy)-benzofuran-6-carboxamide]
- activation at 10 µM: 6.4%
- EC50: > 10000 nM

SMILES: CC(Oc1cc(C(=O)Nc2ccn(C)n2)cc2c1CC(C)(C)O2)c1ccccn1 (stereo not shown) [Example 81, 2,2-Dimethyl-4-(1-pyridin-2-yl-ethoxy)-2,3-dihydro-benzofuran-6-carboxylic acid (1-methyl-1H-pyrazol-3-yl)-amide]
- activation at 10 µM: 112%
- EC50: 5300 nM
- Emax: 148%

SMILES: COc1ccnc(NC(=O)c2cc(Oc3ccc(S(=O)(=O)N4CCC4)cc3)c3cc(C)oc3c2)c1 [Example 295, 4-(4-(Azetidin-1-ylsulfonyl)phenoxy)-N-(4-methoxypyridin-2-yl)-2-methyl-benzofuran-6-carboxamide]
- activation at 10 µM: 46.9%
- EC50: 360 nM
- Emax: 50%

SMILES: Cc1ccc(NC(=O)c2cc(Oc3ccc(C(=O)N(C)C)c(F)c3)c3ccsc3c2)nc1 [Example 358, 4-(4-(Dimethylcarbamoyl)-3-fluorophenoxy)-N-(5-methylpyridin-2-yl)benzo[b]thiophene-6-carboxamide]
- activation at 10 µM: 50.4%
- EC50: 330 nM
- Emax: 56%

SMILES: CO[C@@H]1CCN(C(=O)c2ccc(Oc3cc(C(=O)Nc4ccn(C)n4)cc4c3CC(C)(C)O4)cc2F)C1 [Example 59, 4-[3-Fluoro-4-((R)-3-methoxy-pyrrolidine-1-carbonyl)-phenoxy]-2,2-dimethyl-2,3-dihydro-benzofuran-6-carboxylic acid(1-methyl-1H-pyrazol-3-yl)-amide]
- activation at 10 µM: 172%
- EC50: 250 nM
- Emax: 168%

SMILES: CCc1nnc(NC(=O)c2cc(Oc3ccc(S(C)(=O)=O)cc3)c3c(c2)OC(C)(C)C3)s1 [Example 27, 4-(4-Methanesulfonyl-phenoxy)-2,2-dimethyl-2,3-dihydro-benzofuran-6-carboxylic acid(5-ethyl-[1,3,4]thiadiazol-2-yl)-amide]
- activation at 10 µM: 112%
- EC50: 1100 nM
- Emax: 112%

SMILES: Cc1ccc(NC(=O)c2cc(Oc3ccc(S(C)(=O)=O)c(F)c3)c3c(c2)OC(C)(CO)C3)nc1 (stereo not shown) [Example 233, 4-(3-Fluoro-4-methanesulfonyl-phenoxy)-2-hydroxymethyl-2-methyl-2,3-dihydro-benzofuran-6-carboxylic acid (5-methyl-pyridin-2-yl)-amide]
- activation at 10 µM: 201%
- EC50: 64 nM
- Emax: 165%

SMILES: Cc1nc(COc2cc(C(=O)Nc3ccn(C)n3)cc3c2CC(C)(C)O3)cs1 [Example 90, 2,2-Dimethyl-4-(2-methyl-thiazol-4-ylmethoxy)-2,3-dihydro-benzofuran-6-carboxylic acid (1-methyl-1H-pyrazol-3-yl)-amide]
- activation at 10 µM: 112%
- EC50: 5600 nM
- Emax: 138%

SMILES: Cn1ccc(NC(=O)c2cc(Oc3ccc(C(F)F)cc3)c3c(c2)OC(C)(C)C3)n1 [Example 38, 4-(4-Difluoromethyl-phenoxy)-2,2-dimethyl-2,3-dihydro-benzofuran-6-carboxylic acid(1-methyl-1H-pyrazol-3-yl)-amide]
- activation at 10 µM: 109%
- EC50: 2400 nM
- Emax: 149%

SMILES: Cn1ncc(NC(=O)c2cc(Oc3ccc(S(=O)(=O)C4CC4)cc3)c3c(c2)OC(C)(C)C3)n1 [Example 131, 4-(4-Cyclopropanesulfonyl-phenoxy)-2,2-dimethyl-2,3-dihydro-benzofuran-6-carboxylic acid (2-methyl-2H-[1,2,3]triazol-4-yl)-amide]
- activation at 10 µM: 292%
- EC50: 210 nM
- Emax: 272%

SMILES: COC(C)CCOc1cc(C(=O)Nc2ccn(C)n2)cc2c1CC(C)(C)O2 (stereo not shown) [Example 101, 4-(3-Methoxy-butoxy)-2,2-dimethyl-2,3-dihydro-benzofuran-6-carboxylic acid (1-methyl-1H-pyrazol-3-yl)-amide]
- activation at 10 µM: 94.7%
- EC50: 6000 nM
- Emax: 125%

SMILES: CN(C)C(=O)c1ccc(Oc2cc(C(=O)Nc3ccn(C)n3)cc3c2CC(C)(C)O3)cc1Cl [Example 108, 4-(3-Chloro-4-dimethylcarbamoyl-phenoxy)-2,2-dimethyl-2,3-dihydro-benzofuran-6-carboxylic acid (1-methyl-1H-pyrazol-3-yl)-amide]
- activation at 10 µM: 82.2%
- EC50: 76 nM
- Emax: 107%

SMILES: Cc1cc2c(Oc3ccc(S(C)(=O)=O)cc3)cc(C(=O)Nc3ccc(C(F)(F)F)cn3)cc2o1 [Example 253, 2-Methyl-4-(4-(methylsulfonyl)phenoxy)-N-(5-(trifluoromethyl)-pyridin-2-yl)benzofuran-6-carboxamide]
- activation at 10 µM: 32.1%

SMILES: Cn1ccc(NC(=O)c2cc(Oc3ccc(C(=O)Nc4ccn(C)n4)nc3)c3c(c2)OC(C)(C)C3)n1 [Example 163, 5-[2,2-Dimethyl-6-(1-methyl-1H-pyrazol-3-ylcarbamoyl)-2,3-dihydro-benzofuran-4-yloxy]-pyridine-2-carboxylic acid (1-methyl-1H-pyrazol-3-yl)-amide]
- activation at 10 µM: 118%
- EC50: 440 nM
- Emax: 137%

SMILES: Cc1nc(COc2cc(C(=O)Nc3ccn(C)n3)cc3c2CC(C)(C)O3)no1 [Example 96, 2,2-Dimethyl-4-(5-methyl-[1,2,4]oxadiazol-3-ylmethoxy)-2,3-dihydro-benzofuran-6-carboxylic acid (1-methyl-1H-pyrazol-3-yl)-amide]
- activation at 10 µM: 107%
- EC50: 7300 nM
- Emax: 148%

SMILES: Cn1ccc(NC(=O)c2cc(Oc3ccc(S(C)(=O)=O)cc3)c3c(c2)OC(C)(CO)C3)n1 (stereo not shown) [Example 227, 2-Hydroxymethyl-4-(4-methanesulfonyl-phenoxy)-2-methyl-2,3-dihydro-benzofuran-6-carboxylic acid (1-methyl-1H-pyrazol-3-yl)-amide]
- activation at 10 µM: 165%
- EC50: 690 nM
- Emax: 184%

SMILES: Cn1ccc(NC(=O)c2cc(Oc3ccc(S(C)(=O)=O)cc3)c3c(c2)OC(C)(C)C3)n1 [Example 16, 4-(4-Methanesulfonyl-phenoxy)-2,2-dimethyl-2,3-dihydro-benzofuran-6-carbo-xylic acid(1-methyl-1H-pyrazol-3-yl)-amide]
- activation at 10 µM: 213%
- EC50: 506 nM
- Emax: 192%

SMILES: Cn1ccc(NC(=O)c2cc(Oc3ccc(S(C)(=O)=O)cc3)c3ccsc3c2)n1 [Example 356, 4-(4-(Methylsulfonyl)phenoxy)-N-(1-methyl-1H-pyrazol-3-yl)benzo-[b]-thiophene-6-carboxamide]
- activation at 10 µM: 77.4%
- EC50: > 10000 nM

SMILES: Cc1cc(NC(=O)c2cc(Oc3ccc(S(C)(=O)=O)cc3)c3cc(C)oc3c2)no1 [Example 255, 2-Methyl-N-(5-methylisoxazol-3-yl)-4-(4-(methylsulfonyl)-phenoxy)-benzofuran-6-carboxamide]
- activation at 10 µM: 18.8%

SMILES: Cn1ccc(NC(=O)c2cc(Oc3ccc(S(C)(=O)=O)cc3)cc3c2CC(C)(C)O3)n1 [Example 199, 6-(4-Methanesulfonyl-phenoxy)-2,2-dimethyl-2,3-dihydro-benzofuran-4-carboxylic acid (1-methyl-1H-pyrazol-3-yl)-amide]
- activation at 10 µM: 40.3%
- EC50: > 10000 nM
